Results from PMC12655172, “Borylated 5-Membered Ring Iminosugars: Synthesis and Biological Evaluation for Glycosidase Inhibition and Anticancer Properties for Application in Boron Neutron Capture Therapy (BNCT)—Part 2” (Pharmaceuticals, 2025).
“And” between values parts separate entries of the source, which are not always exact repeats. Equal entries are not always repeated.

Legend:
Assay type in all cases: biochemical
[1] = tested on: T1, β-D-glucuronidase (E. coli); assay: Glycosidase inhibition (Table 2 panel)
T1 construct: purchased Sigma-Aldrich
Source text: (§1) The enzymes α-D-glucosidase (yeast), β-D-glucosidases (almond, bovine liver), α-D-galactosidase (coffee beans), β-D-galactosidase (bovine liver), α-D-mannosidase (Jack bean), β-D-mannosidase (snail), α-L-rhamnosidase (P. decumbens), α-L-fucosidase (bovine kidney), trehalase (porcine kidney), β-D-glucuronidases (E. coli, bovine liver), amyloglucosidase (A. niger), para-nitrophenyl glycosides, and various disaccharides were purchased from Sigma-Aldrich Co (St. Louis, MO, USA).
(§2) Brush border membranes were prepared from the rat small intestine according to the method of Kessler et al., and were assayed at pH 6.8 for rat intestinal maltase using maltose. […] The reaction was stopped by heating at 100 °C for 3 min. After centrifugation (600 g; 10 min), the resulting reaction mixture was added to the Glucose CII-test Wako (Wako Pure Chemical Ind., Osaka, Japan). […] Other glycosidase activities were determined using an appropriate para-nitrophenyl glycoside as substrate at the optimum pH of each enzyme. The reaction mixture contained the substrate ([…]) and the appropriate amount of enzyme. The reaction was stopped by the addition of Na2CO3 (400 μM). The released para-nitrophenol was measured spectrometrically at 400 nm. All reactions were run in methanol.

[2] = tested on: T2, amyloglucosidase (A. niger); assay: Glycosidase inhibition (Table 2 panel)
T2 construct: purchased Sigma-Aldrich
Source text: as §1, §2

[3] = tested on: T3, α-D-galactosidase (coffee beans); assay: Glycosidase inhibition (Table 2 panel)
T3 construct: purchased Sigma-Aldrich; host or cells: coffee beans
Source text: as §1
(§3) Brush border membranes were prepared from the rat small intestine according to the method of Kessler et al., and were assayed at pH 6.8 for rat intestinal maltase using maltose. For rat intestinal maltase, porcine kidney trehalase, and A. niger amyloglucosidase activities, the reaction mixture contained maltose ([…]) and the appropriate amount of enzyme, and the incubations were performed for 10–30 min at 37 °C. The reaction was stopped by heating at 100 °C for 3 min. After centrifugation (600 g; 10 min), the resulting reaction mixture was added to the Glucose CII-test Wako (Wako Pure Chemical Ind., Osaka, Japan). The absorbance at 505 nm was measured to determine the amount of the released D-glucose. Other glycosidase activities were determined using an appropriate para-nitrophenyl glycoside as substrate at the optimum pH of each enzyme. The reaction mixture contained the substrate ([…]) and the appropriate amount of enzyme. The reaction was stopped by the addition of Na2CO3 ([…]). The released para-nitrophenol was measured spectrometrically at 400 nm. All reactions were run in […].

[4] = tested on: T4, trehalase (porcine kidney); assay: Glycosidase inhibition (Table 2 panel)
T4 construct: purchased Sigma-Aldrich; host or cells: porcine kidney
Source text: as §1, §3

[5] = tested on: T5, α-D-mannosidase (Jack bean); assay: Glycosidase inhibition (Table 2 panel)
T5 construct: purchased Sigma-Aldrich; host or cells: Jack bean
Source text: as §1, §3

[6] = biological target: T6, β-D-galactosidase (bovine liver) (Bos taurus, UniProt F1MNT6); assay: Glycosidase inhibition (Table 2 panel)
T6 sequence (F1MNT6 1-469): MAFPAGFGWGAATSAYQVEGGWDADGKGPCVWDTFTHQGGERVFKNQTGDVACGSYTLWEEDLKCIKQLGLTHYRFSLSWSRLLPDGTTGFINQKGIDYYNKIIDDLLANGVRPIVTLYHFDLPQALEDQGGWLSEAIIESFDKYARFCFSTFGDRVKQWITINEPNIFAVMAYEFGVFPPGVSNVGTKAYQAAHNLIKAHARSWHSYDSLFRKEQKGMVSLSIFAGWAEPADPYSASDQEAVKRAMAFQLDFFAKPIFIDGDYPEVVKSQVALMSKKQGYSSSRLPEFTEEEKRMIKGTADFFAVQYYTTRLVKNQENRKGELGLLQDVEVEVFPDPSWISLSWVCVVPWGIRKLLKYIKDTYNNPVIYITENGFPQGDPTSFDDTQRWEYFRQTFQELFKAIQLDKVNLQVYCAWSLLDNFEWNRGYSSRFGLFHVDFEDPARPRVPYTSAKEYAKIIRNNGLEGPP
Source text: as §1, §3

[7] = biological target: T7, β-D-glucosidase (bovine liver) (Bos taurus, UniProt F1MNT6); assay: Glycosidase inhibition (Table 2 panel)
T7 sequence (F1MNT6 1-469): T6 sequence (F1MNT6 1-469)
Source text: as §1, §3

β-D-glucosidase (almond) = assay: Glycosidase inhibition (Table 2 panel)
Source text: as §1, §3

β-D-mannosidase (snail) = assay: Glycosidase inhibition (Table 2 panel)
Source text: as §1, §3

[8] = tested on: α-D-glucosidase (rat intestinal maltase); assay: Glycosidase inhibition (Table 2 panel)
Source text: as §1, §3

[9] = tested on: β-D-glucuronidase (bovine liver); assay: Glycosidase inhibition (Table 2 panel)
Source text: as §1, §3

[10] = tested on: α-L-rhamnosidase (P. decumbens); assay: Glycosidase inhibition (Table 2 panel)
Source text: as §1, §3

α-D-glucosidase (yeast) = biological target: T8, α-D-glucosidase (yeast) (Saccharomyces cerevisiae, UniProt P53341); assay: Glycosidase inhibition (Table 2 panel); conditions: for inhibition at 100 µM / inhibition at 1000 µM: read-out: inhibition % α-D-Glucosidase Yeast
T8 construct: purchased Sigma-Aldrich
T8 sequence (P53341 whole entry): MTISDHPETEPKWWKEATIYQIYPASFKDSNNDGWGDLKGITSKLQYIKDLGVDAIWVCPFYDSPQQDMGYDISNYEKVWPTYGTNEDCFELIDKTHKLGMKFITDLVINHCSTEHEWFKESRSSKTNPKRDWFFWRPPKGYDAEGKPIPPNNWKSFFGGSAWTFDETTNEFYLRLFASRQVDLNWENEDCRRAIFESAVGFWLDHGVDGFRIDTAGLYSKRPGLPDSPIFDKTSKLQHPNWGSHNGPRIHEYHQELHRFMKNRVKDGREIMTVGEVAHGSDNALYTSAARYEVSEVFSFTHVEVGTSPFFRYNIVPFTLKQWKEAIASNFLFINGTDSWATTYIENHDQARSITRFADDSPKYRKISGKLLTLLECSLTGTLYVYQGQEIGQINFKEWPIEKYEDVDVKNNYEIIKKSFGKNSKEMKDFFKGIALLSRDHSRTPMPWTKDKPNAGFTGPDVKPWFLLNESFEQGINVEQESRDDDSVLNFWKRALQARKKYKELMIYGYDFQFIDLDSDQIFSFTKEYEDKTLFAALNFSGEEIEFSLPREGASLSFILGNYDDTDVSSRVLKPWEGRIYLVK
Source text: as §1, §2

α-D-glucosidase (rice) = α-D-glucosidase (rice) (Oryza sativa subsp. japonica, UniProt Q653V7); assay: Glycosidase inhibition (Table 2 panel)
α-D-glucosidase (rice), sequence (Q653V7 34-885): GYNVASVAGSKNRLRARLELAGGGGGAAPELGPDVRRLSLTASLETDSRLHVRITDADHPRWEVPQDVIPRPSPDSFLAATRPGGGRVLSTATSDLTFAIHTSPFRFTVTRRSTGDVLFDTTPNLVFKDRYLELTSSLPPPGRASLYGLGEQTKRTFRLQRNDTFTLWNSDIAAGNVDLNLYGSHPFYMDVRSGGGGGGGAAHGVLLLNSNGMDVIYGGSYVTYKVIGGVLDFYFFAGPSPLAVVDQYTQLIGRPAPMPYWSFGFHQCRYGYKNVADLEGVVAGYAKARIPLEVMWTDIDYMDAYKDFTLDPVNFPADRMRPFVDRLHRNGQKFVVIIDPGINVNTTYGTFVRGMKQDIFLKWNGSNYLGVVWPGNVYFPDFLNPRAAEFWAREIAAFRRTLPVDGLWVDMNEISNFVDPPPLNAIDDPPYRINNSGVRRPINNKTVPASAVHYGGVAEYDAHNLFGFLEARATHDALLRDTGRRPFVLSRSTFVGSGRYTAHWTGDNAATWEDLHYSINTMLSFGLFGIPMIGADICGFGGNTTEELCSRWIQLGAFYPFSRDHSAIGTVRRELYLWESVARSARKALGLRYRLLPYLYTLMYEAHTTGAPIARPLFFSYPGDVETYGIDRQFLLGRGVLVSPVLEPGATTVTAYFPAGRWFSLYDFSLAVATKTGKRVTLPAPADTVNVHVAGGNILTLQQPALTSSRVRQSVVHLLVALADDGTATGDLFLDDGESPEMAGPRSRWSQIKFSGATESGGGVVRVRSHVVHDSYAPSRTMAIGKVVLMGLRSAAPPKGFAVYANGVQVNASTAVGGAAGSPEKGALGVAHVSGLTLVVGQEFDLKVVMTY
Source text: as §1, §3

[11] = tested on: β-D-galactosidase (E. coli); assay: Glycosidase inhibition (Table 2 panel); conditions: at 100 μM
[12] = tested on: N-acetyl-β-D-hexosaminidase (rat intestine); assay: Glycosidase inhibition (Table 3 panel); conditions: 1 mg/mL aqueous solution; run in water
Description: (§4) All enzymes and para-nitrophenyl substrates were purchased from Sigma. Enzymes were assayed at 27 °C in citric acid (0.1 M)/disodium hydrogen phosphate (0.2 M) buffers at the optimum pH for the enzyme. The incubation mixture consisted of […] of 1 mg/mL aqueous solution of extract and […] of the appropriate […] para-nitrophenyl substrate made up in buffer at the optimum pH for the enzyme. The reactions were stopped by addition of […] 0.4 M glycine (pH 10.4) during the exponential phase of the reaction, which had been determined at the beginning using uninhibited assays in which water replaced the inhibitor. Final absorbances were read at 405 nm using a Versamax microplate reader (Molecular Devices, Wokingham, UK). Assays were carried out in triplicate, and the values given are means of the three replicates per assay. All reactions were run in water.

[13] = tested on: α-D-glucosidase (rat intestine); assay: Glycosidase inhibition (Table 3 panel); conditions: 1 mg/mL aqueous solution; run in water
Description: as §4

[14] = tested on: β-D-glucosidase (human lysosome); assay: Glycosidase inhibition (Table 2 panel); conditions: at 100 μM
[15] = tested on: α-D-glucosidase (human lysosome); assay: Glycosidase inhibition (Table 2 panel); conditions: at 100 μM
Source text: as §1, §3

[16] = tested on: β-D-glucanase (T. Longibrachiatum); assay: Glycosidase inhibition (Table 2 panel); conditions: at 100 μM

| Compound | inhibition % β-D-Glucuronidase E. coli ([1]; at 100 μM) | inhibition % Amyloglucosidase A. niger ([2]; at 100 μM) | inhibition % α-D-Galactosidase Coffee Beans ([3]; at 100 μM) | inhibition % Trehalase Porcine Kidney ([4]; at 100 μM) | inhibition % α-D-Mannosidase Jack Bean ([5]; at 100 μM) | inhibition at 100 µM ([7]; at 100 μM) [%] | inhibition % β-D-Glucosidase Almond (β-D-glucosidase (almond); at 100 μM) | inhibition % β-D-Mannosidase Snail (β-D-mannosidase (snail); at 100 μM) | inhibition % α-D-Glucosidase Rat Intestinal Maltase ([8]; at 100 μM) | inhibition % β-D-Glucuronidase Bovine Liver ([9]; at 100 μM) | inhibition % α-L-Rhamnosidase P. decumbens ([10]; at 100 μM) | inhibition % β-D-Glucuronidase E. coli ([1]; at 1000 μM) | inhibition % Amyloglucosidase A. niger ([2]; at 1000 μM) | inhibition % α-D-Galactosidase Coffee Beans ([3]; at 1000 μM) | inhibition % Trehalase Porcine Kidney ([4]; at 1000 μM) | inhibition % α-D-Mannosidase Jack Bean ([5]; at 1000 μM) | inhibition % β-D-Glucosidase Almond (β-D-glucosidase (almond); at 1000 μM) | inhibition % β-D-Mannosidase Snail (β-D-mannosidase (snail); at 1000 μM) | inhibition % α-D-Glucosidase Rat Intestinal Maltase ([8]; at 1000 μM) | inhibition % β-D-Glucuronidase Bovine Liver ([9]; at 1000 μM) | further results |
| --- | --- | --- | --- | --- | --- | --- | --- | --- | --- | --- | --- | --- | --- | --- | --- | --- | --- | --- | --- | --- | --- |
| N[C@@H](Cc1ccc(B(O)O)cc1)C(=O)O [BPA, 4-borono-L-phenylalanine, reference compound] | ^cNI ^d(0.5%) | ^cNI ^d(0%) | ^cNI ^d(4.3%) | ^cNI ^d(0%) | ^cNI ^d(1.1%) | 0 | ^cNI ^d(0%) | ^cNI ^d(2.1%) | ^cNI ^d(0%) | ^cNI ^d(7.4%) | ^cNI ^d(0%) | – | – | – | – | – | – | – | – | – | inhibition at 100 µM ([6]; at 100 μM): 10.9% |
| N[C@@H](Cc1ccc(B(O)O)cc1)C(=O)O [^10B-BPA, reference compound] | ^cNI ^d(2.4%) | ^cNI ^d(0%) | ^cNI ^d(1.2%) | ^cNI ^d(0%) | ^cNI ^d(0%) | – | ^cNI ^d(0%) | ^cNI ^d(0.3%) | ^cNI ^d(0%) | ^cNI ^d(0%) | ^cNI ^d(0%) | – | – | – | – | – | – | – | – | – | inhibition % α-D-Glucosidase Yeast (α-D-glucosidase (yeast); at 100 μM): ^cNI ^d(0%); inhibition % α-D-Glucosidase Rice (α-D-glucosidase (rice); at 100 μM): ^cNI ^d(0%); inhibition % β-D-Galactosidase Bovine Liver ([6]; at 100 μM): ^cNI ^d(0%); inhibition % β-D-Glucosidase Bovine Liver ([7]; at 100 μM): ^cNI ^d(14.2%) |
| OB(O)c1cccc(CN2C[C@@H](O)[C@H]3OC(O)[C@H](O)[C@H]32)c1 (stereo partly drawn) [meta 3, N-(3-Methylphenylboronic acid)-3,6-dideoxy-3,6-imino-D-gulofuranose] | ^cNI ^d(16.2%) | ^cNI ^d(24.6%) | ^cNI ^d(0%) | ^cNI ^d(20.9%) | ^cNI ^d(0%) | 8.2 | ^cNI ^d(24.8%) | ^cNI ^d(0%) | ^cNI ^d(12.3%) | ^cNI ^d(1.2%) | ^cNI ^d(1.2%) | ^aNI ^b(36.9%) | ^aNI ^b(1.5%) | ^aNI ^b(0.7%) | ^aNI ^b(0%) | ^aNI ^b(0%) | ^aNI ^b(45.8%) | ^aNI ^b(0%) | ^aNI ^b(2.0%) | ^aNI ^b(7.2%) | inhibition % β-D-Galactosidase E. coli [11]: ^cNI ^d(0.2%); Percentage inhibition N-Acetyl-β-D-Hexosaminidase Rat Intestine [12]: 8.7%; Percentage inhibition α-D-Glucosidase Rat Intestine [13]: 12.1% and 8.9%; inhibition at 100 µM (α-D-glucosidase (yeast)): 1.4%; inhibition at 1000 µM (α-D-glucosidase (yeast)): 37%; inhibition % β-D-Glucosidase Human Lysosome [14]: ^cNI ^d(6.6%); inhibition % α-D-Glucosidase Human Lysosome [15]: ^cNI ^d(3.5%); inhibition at 100 µM (α-D-glucosidase (rice); at 100 μM): 0%; inhibition at 1000 µM (α-D-glucosidase (rice); at 1000 μM): 5.9%; inhibition % α-L-Rhamnosidase P. decumbens ([10]; at 1000 μM): ^aNI ^b(3.2%); inhibition % β-D-Glucanase T. Longibrachiatum [16]: ^cNI ^d(0%) |
| OB(O)c1ccccc1CN1C[C@@H](O)[C@H]2OC(O)[C@H](O)[C@H]21 (stereo partly drawn) [ortho 3, N-(2-Methylphenylboronic acid)-3,6-dideoxy-3,6-imino-D-gulofuranose] | ^cNI ^d(0%) | ^cNI ^d(0%) | ^cNI ^d(0%) | ^cNI ^d(0%) | ^cNI ^d(3.8%) | 0 | ^cNI ^d(13.7%) | ^cNI ^d(0%) | ^cNI ^d(0%) | ^cNI ^d(2.9%) | ^cNI ^d(0%) | ^aNI ^b(8.4%) | ^aNI ^b(2.1%) | ^aNI ^b(0%) | ^aNI ^b(0%) | ^aNI ^b(0%) | ^aNI ^b(38.8%) | ^aNI ^b(0%) | ^aNI ^b(0.7%) | ^aNI ^b(6.6%) | inhibition % β-D-Galactosidase E. coli [11]: ^cNI ^d(4.4%); Percentage inhibition N-Acetyl-β-D-Hexosaminidase Rat Intestine [12]: 19.2%; Percentage inhibition α-D-Glucosidase Rat Intestine [13]: −1.4%; inhibition at 100 µM (α-D-glucosidase (yeast)): 2.9%; inhibition at 1000 µM (α-D-glucosidase (yeast)): 1%; inhibition % β-D-Glucosidase Human Lysosome [14]: ^cNI ^d(0%); inhibition % α-D-Glucosidase Human Lysosome [15]: ^cNI ^d(0.3%); inhibition at 100 µM (α-D-glucosidase (rice); at 100 μM): 0%; inhibition at 1000 µM (α-D-glucosidase (rice); at 1000 μM): 0%; inhibition % α-L-Rhamnosidase P. decumbens ([10]; at 1000 μM): ^aNI ^b(3.2%); inhibition % β-D-Glucanase T. Longibrachiatum [16]: ^cNI ^d(0%) |
| Borocaptate sodium [BSH, reference compound] | – | – | – | – | – | – | – | – | – | – | – | ^aNI ^b(6%) | ^aNI ^b(0%) | ^aNI ^b(12.3%) | ^aNI ^b(4.2%) | ^aNI ^b(7.9%) | ^aNI ^b(0%) | ^aNI ^b(19.2%) | ^aNI ^b(0%) | ^aNI ^b(19.6%) | inhibition % α-D-Glucosidase Yeast (α-D-glucosidase (yeast); at 1000 μM): ^aNI ^b(6.9%); inhibition % α-D-Glucosidase Rice (α-D-glucosidase (rice); at 1000 μM): ^aNI ^b(0%); inhibition % β-D-Galactosidase Bovine Liver ([6]; at 1000 μM): ^aNI ^b(0%); inhibition % β-D-Glucosidase Bovine Liver ([7]; at 1000 μM): ^aNI ^b(15%); inhibition % α-L-Rhamnosidase P. decumbens ([10]; at 1000 μM): ^aNI ^b(0.2%) |
